Measurements taken from US10766903B2 (ALMAC DISCOVERY LIMITED, priority 2016, dated 2020).
Counter-ions that a name gives are not always drawn.

What follows are compounds tested against USP7 (Homo sapiens (Human), UniProt Q93009) (assay: USP7 fluorescence polarisation (FP) biochemical assay, ubiquitin-Lys-TAMRA substrate). Conditions: not given.
Experimental: Measurement of USP7 Inhibitory Activity
USP7 activity was monitored in a fluorescence polarisation (FP) homogeneous assay using the isopeptide ubiquitin-Lys-TAMRA substrate (U-558, Boston Biochem). Full-length USP7 was purchased from Boston Biochem (His6-USP7FL, E-519). Unless otherwise stated, all other reagents were purchased from Sigma-Aldrich. Enzymatic reactions were conducted in black flat-bottom polystyrene 384-well plates (Nunc) and 15 μL total volume. USP7 (2.5 nM, 5 μL) was incubated in assay buffer (50 mM HEPES (pH 7.2), 150 mM NaCl, 0.5 mM EDTA, 5 mM DTT, 0.05% BSA (w/v), 0.05% CHAPS) in the presence or absence of inhibitor (5 μl). Inhibitors were stored as 10 mM DMSO stocks in an inert environment (low humidity, dark, low oxygen, room temperature) using a Storage Pod System and serial dilutions were prepared in buffer just prior to the assay (from 200 to 0.1 μM, 8 dp curve). […] FP was measured every 15 min over a period of 1.5 h (within the linear range of the assay) using a Synergy 4 plate reader (BioTek) exciting at 530 nm and measuring the amount of parallel and perpendicular light at 575 nm. The FP signal was subsequently normalised to the control without compound present.

Chain of USP7 (Q93009 whole entry): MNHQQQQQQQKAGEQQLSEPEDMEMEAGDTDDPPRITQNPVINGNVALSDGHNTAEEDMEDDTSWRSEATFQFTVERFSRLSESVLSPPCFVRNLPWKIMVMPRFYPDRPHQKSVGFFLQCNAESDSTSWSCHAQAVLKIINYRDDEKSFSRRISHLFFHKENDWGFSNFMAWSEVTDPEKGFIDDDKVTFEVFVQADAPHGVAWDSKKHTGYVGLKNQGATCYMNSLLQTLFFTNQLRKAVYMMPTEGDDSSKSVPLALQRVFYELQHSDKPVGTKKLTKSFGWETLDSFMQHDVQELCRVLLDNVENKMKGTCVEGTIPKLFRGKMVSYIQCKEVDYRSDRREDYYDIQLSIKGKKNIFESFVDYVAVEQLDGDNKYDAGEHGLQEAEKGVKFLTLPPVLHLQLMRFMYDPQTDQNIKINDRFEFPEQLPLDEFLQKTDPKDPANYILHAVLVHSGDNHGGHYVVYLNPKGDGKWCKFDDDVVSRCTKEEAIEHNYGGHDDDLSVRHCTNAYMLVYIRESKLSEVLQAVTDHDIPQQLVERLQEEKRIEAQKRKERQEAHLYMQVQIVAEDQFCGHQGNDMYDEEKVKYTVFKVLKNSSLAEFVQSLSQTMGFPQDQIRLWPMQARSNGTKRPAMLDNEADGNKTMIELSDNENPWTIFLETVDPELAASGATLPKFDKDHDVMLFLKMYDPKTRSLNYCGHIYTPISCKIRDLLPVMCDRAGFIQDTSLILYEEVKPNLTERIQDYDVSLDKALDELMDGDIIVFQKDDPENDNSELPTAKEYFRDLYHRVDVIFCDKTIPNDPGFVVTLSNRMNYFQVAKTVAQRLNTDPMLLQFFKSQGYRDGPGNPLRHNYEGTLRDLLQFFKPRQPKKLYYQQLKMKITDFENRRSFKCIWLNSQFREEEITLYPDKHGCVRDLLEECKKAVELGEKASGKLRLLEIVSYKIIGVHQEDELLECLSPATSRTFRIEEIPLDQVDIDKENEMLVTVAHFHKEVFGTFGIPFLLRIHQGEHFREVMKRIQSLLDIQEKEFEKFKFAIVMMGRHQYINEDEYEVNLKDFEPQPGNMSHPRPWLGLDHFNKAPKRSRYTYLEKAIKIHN

Compound | IC50
C[C@H](CC(=O)N1CCC(O)(Cn2cnc(Nc3ccc4c(c3)C3CCC4N3)cc2=O)CC1)c1ccccc1 (stereo partly drawn) [Example 42, 3-((4-Hydroxy-1-((R)-3-phenylbutanoyl)piperidin-4-yl)methyl)-6-((1,2,3,4-tetrahydro-1,4-epiminonaphthalen-6-yl)amino)pyrimidin-4(3H)-one hydrochloride] | 250 to 999 nM

Same assay, conditions: Table 3, effect of the R2 substituent; read-out: USP7 IC50

Compound | IC50
Cn1nc2c(=O)n(CC3(O)CCN(C(=O)CCc4ccccc4)CC3)cnc2c1C(F)(F)F [Example 39, 6-((4-Hydroxy-1-(3-phenylpropanoyl)piperidin-4-yl)methyl)-2-methyl-3-(trifluoromethyl)-2H-pyrazolo[4,3-d]pyrimidin-7(6H)-one] | 14000 nM

Same assay, conditions: Table 4, biochemical assay; average of at least duplicate experiments; read-out: USP7 IC50

Compound | IC50
Cn1nc2c(=O)n(CC3(O)CCN(C(=O)C[C@H](c4ccccc4)C(F)(F)F)CC3)cnc2c1-c1ccccc1 [Example 37, (R)-6-((4-Hydroxy-1-(4,4,4-trifluoro-3-phenylbutanoyl)piperidin-4-yl)methyl)-2-methyl-3-phenyl-2H-pyrazolo[4,3-d]pyrimidin-7(6H)-one] | 250 to 999 nM
Cn1nc2c(=O)n(CC3(O)CCN(C(=O)CCc4ccccc4)CC3)cnc2c1C(F)(F)F [Example 39, 6-((4-Hydroxy-1-(3-phenylpropanoyl)piperidin-4-yl)methyl)-2-methyl-3-(trifluoromethyl)-2H-pyrazolo[4,3-d]pyrimidin-7(6H)-one] | 1000 to 200000 nM
C[C@H](CC(=O)N1CCC(O)(Cn2cnc3c(Nc4ccccc4)n(C)nc3c2=O)CC1)c1ccccc1 [Example 43, (R)-6-((4-Hydroxy-1-(3-phenylbutanoyl)piperidin-4-yl)methyl)-2-methyl-3-(phenylamino)-2H-pyrazolo[4,3-d]pyrimidin-7(6H)-one] | 1000 to 200000 nM
Cc1c(Cl)ncn(CC2(O)CCN(C(=O)C[C@@H](C)c3ccccc3)CC2)c1=O [Example 44, (R)-6-Chloro-3-((4-hydroxy-1-(3-phenylbutanoyl)piperidin-4-yl)methyl)-5-methylpyrimidin-4(3H)-one] | 1000 to 200000 nM
C[C@H](CC(=O)N1CCC(O)(Cn2cnc(NCCN3CCCC3)c(Br)c2=O)CC1)c1ccccc1 [Example 45, (R)-5-Bromo-3-((4-hydroxy-1-(3-phenylbutanoyl)piperidin-4-yl)methyl)-6-((2-(pyrrolidin-1-yl)ethyl)amino)pyrimidin-4(3H)-one] | 1000 to 200000 nM
C[C@H](CC(=O)N1CCC(O)(Cn2cnc(N3CCC[C@H](N(C)C)C3)cc2=O)CC1)c1ccccc1 [Example 50, 6-((S)-3-(Dimethylamino)piperidin-1-yl)-3-((4-hydroxy-1-((R)-3-phenylbutanoyl)piperidin-4-yl)methyl)pyrimidin-4(3H)-one] | < 250 nM

Same assay, conditions: USP7 IC50, Table 4, biochemical assay; average of at least duplicate experiments

Compound | IC50
C[C@H](CC(=O)N1CCC(O)(Cn2cnc(-c3cnn(C)c3)cc2=O)CC1)c1ccccc1 [Example 40, (R)-3-((4-Hydroxy-1-(3-phenylbutanoyl)piperidin-4-yl)methyl)-6-(1-methyl-1H-pyrazol-4-yl)pyrimidin-4(3H)-one] | 250 to 999 nM
CC(C)Cn1cc(-c2cc(=O)n(CC3(O)CCN(C(=O)C[C@@H](C)c4ccccc4)CC3)cn2)cn1 [Example 41, (R)-3-((4-Hydroxy-1-(3-phenylbutanoyl)piperidin-4-yl)methyl)-6-(1-isobutyl-1H-pyrazol-4-yl)pyrimidin-4(3H)-one] | 250 to 999 nM
C[C@H](CC(=O)N1CCC(O)(Cn2cnc(N3CCC[C@H](N)C3)cc2=O)CC1)c1ccccc1 [Example 47, 6-((S)-3-Aminopiperidin-1-yl)-3-((4-hydroxy-1-((R)-3-phenylbutanoyl)piperidin-4-yl)methyl)pyrimidin-4(3H)-one hydrochloride] | 250 to 999 nM
C[C@H](CC(=O)N1CCC(O)(Cn2cnc(N3CCC(N)CC3)cc2=O)CC1)c1ccccc1 [Example 48, (R)-6-(4-Aminopiperidin-1-yl)-3-((4-hydroxy-1-(3-phenylbutanoyl)piperidin-4-yl)methyl)pyrimidin-4(3H)-one hydrochloride] | 250 to 999 nM
C[C@H](CC(=O)N1CCC(O)(Cn2cnc(N3CCC4(CCNC4)CC3)cc2=O)CC1)c1ccccc1 [Example 49, (R)-3-((4-Hydroxy-1-(3-phenylbutanoyl)piperidin-4-yl)methyl)-6-(2,8-diazaspiro[4.5]decan-8-yl)pyrimidin-4(3H)-one hydrochloride] | 250 to 999 nM
